Measured values from ChEMBL document CHEMBL5291721, “A preclinical secondary pharmacology resource illuminates target-adverse drug reaction associations of marketed drugs” (Nat Commun, 2023).

Key:
[1] = target: T1, 5-hydroxytryptamine receptor 1A (Homo sapiens, UniProt P08908); format: functional, cell-based
T1 sequence (P08908 whole entry): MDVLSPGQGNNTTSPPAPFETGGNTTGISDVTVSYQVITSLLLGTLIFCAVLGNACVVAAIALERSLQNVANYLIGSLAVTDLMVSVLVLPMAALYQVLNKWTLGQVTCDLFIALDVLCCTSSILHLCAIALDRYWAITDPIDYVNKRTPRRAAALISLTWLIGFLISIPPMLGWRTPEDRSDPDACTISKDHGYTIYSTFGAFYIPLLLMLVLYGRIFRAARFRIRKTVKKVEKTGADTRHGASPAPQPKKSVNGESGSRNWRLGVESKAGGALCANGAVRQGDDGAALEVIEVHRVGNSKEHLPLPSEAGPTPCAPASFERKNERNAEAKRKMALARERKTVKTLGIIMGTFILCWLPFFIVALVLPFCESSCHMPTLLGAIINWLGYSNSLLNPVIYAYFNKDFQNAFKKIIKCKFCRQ

[2] = target: T2, Adenosine receptor A3 (Homo sapiens, UniProt P0DMS8)
T2 sequence (P0DMS8 whole entry): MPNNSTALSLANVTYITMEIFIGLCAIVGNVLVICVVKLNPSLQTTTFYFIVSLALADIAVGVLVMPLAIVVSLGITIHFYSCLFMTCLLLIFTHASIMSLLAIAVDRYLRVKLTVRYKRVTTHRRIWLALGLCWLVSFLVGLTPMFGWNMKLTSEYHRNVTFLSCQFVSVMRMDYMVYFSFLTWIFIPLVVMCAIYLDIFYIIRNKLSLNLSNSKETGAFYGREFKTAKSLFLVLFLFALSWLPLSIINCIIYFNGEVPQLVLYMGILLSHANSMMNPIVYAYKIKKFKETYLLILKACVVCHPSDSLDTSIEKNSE

[3] = target: Motilin receptor (Homo sapiens, UniProt O43193)
Sequence of Motilin receptor (O43193 whole entry): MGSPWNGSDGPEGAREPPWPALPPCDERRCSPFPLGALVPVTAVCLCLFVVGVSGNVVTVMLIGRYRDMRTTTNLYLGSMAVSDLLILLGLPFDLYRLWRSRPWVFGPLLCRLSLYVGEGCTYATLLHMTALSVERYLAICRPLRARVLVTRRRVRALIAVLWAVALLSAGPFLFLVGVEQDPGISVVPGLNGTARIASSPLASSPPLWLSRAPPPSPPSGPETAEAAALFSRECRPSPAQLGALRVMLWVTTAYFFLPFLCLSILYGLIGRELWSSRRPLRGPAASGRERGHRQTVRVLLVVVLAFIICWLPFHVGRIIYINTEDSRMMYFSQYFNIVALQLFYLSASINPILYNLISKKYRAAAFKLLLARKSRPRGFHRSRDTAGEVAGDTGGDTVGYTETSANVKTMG

[4] = target: Cannabinoid receptor 1 (Homo sapiens, UniProt P21554)
Sequence of Cannabinoid receptor 1 (P21554 whole entry): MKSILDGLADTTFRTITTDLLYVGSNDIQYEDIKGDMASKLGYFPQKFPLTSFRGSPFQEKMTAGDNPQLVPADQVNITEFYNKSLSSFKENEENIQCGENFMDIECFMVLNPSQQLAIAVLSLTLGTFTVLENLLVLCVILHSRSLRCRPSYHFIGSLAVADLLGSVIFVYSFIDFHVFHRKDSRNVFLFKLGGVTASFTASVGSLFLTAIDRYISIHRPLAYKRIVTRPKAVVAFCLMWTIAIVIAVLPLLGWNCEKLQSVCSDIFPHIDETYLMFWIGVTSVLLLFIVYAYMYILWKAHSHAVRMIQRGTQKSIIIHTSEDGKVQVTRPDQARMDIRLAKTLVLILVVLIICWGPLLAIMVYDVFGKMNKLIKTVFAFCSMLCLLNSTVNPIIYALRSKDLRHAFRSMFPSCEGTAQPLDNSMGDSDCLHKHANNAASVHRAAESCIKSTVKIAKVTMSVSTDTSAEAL

[5] = target: Beta-1 adrenergic receptor (Homo sapiens, UniProt P08588); format: functional
Sequence of Beta-1 adrenergic receptor (P08588 whole entry): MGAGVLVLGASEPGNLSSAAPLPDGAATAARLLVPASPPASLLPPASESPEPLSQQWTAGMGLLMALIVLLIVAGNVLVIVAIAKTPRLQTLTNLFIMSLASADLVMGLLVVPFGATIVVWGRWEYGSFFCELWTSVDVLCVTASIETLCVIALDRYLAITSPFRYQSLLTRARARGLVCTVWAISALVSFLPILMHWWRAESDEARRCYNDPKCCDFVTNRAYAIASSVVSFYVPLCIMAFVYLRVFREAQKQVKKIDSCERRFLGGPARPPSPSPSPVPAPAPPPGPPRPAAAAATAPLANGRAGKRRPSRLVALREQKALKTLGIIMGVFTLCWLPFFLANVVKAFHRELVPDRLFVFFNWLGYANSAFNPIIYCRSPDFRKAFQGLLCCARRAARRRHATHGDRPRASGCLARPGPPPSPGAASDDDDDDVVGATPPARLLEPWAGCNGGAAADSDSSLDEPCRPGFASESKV

[6] = target: T3, Estrogen receptor (Homo sapiens, UniProt P03372)
T3 sequence (P03372 whole entry): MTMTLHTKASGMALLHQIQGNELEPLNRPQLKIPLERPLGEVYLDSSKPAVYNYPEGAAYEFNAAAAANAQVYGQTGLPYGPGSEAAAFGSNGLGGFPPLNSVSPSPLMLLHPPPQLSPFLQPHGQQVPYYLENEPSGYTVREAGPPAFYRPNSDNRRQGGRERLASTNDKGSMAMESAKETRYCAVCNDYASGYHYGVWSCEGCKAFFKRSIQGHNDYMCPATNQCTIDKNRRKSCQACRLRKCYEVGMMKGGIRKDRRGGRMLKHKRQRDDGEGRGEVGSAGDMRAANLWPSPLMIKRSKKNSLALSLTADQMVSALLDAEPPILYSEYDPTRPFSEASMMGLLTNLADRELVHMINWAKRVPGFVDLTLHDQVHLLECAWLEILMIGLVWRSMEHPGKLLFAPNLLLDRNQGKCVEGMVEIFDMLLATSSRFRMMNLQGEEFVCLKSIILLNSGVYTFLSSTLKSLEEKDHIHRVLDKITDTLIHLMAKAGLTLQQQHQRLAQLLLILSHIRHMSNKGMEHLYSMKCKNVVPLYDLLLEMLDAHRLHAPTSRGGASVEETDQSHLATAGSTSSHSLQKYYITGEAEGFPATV

[7] = target: T4, Alpha-1A adrenergic receptor (Homo sapiens, UniProt P35348); format: functional, cell-based
T4 sequence (P35348 whole entry): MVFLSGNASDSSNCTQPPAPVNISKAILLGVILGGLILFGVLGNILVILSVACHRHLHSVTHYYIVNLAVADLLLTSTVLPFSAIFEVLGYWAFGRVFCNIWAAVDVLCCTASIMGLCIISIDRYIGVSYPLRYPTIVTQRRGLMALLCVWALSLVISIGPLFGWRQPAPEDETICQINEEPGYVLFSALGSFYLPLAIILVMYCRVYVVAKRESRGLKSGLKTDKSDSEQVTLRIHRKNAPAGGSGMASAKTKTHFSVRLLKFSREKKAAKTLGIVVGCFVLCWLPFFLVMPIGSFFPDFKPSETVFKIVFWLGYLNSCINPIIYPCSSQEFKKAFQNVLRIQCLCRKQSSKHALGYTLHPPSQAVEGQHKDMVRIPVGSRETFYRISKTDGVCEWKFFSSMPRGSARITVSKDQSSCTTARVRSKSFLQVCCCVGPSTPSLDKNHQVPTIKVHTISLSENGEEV

[8] = target: T5, Progesterone receptor (Homo sapiens, UniProt P06401)
T5 sequence (P06401 whole entry): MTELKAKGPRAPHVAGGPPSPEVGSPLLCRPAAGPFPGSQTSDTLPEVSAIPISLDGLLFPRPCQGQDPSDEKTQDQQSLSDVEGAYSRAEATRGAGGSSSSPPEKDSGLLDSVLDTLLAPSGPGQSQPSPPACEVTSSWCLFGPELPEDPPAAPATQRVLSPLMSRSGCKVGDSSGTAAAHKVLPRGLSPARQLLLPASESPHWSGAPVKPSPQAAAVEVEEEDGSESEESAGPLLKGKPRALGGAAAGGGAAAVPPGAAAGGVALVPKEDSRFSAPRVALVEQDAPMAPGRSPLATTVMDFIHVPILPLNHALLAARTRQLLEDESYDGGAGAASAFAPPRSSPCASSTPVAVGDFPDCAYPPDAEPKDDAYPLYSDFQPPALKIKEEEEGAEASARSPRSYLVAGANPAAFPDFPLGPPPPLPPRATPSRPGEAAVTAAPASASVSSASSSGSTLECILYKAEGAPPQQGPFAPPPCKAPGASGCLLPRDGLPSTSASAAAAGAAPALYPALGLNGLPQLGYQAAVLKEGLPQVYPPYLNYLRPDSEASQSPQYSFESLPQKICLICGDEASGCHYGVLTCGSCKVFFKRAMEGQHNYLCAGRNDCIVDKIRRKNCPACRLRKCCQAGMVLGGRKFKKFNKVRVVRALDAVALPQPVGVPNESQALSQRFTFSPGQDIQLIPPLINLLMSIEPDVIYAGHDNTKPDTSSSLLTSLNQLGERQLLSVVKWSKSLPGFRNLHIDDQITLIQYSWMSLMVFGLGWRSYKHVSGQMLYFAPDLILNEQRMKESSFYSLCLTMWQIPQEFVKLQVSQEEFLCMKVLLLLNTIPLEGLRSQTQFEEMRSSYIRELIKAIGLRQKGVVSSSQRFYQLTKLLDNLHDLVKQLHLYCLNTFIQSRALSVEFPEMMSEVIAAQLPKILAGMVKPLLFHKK

[9] = target: D(1A) dopamine receptor (Homo sapiens, UniProt P21728)
Sequence of D(1A) dopamine receptor (P21728 whole entry): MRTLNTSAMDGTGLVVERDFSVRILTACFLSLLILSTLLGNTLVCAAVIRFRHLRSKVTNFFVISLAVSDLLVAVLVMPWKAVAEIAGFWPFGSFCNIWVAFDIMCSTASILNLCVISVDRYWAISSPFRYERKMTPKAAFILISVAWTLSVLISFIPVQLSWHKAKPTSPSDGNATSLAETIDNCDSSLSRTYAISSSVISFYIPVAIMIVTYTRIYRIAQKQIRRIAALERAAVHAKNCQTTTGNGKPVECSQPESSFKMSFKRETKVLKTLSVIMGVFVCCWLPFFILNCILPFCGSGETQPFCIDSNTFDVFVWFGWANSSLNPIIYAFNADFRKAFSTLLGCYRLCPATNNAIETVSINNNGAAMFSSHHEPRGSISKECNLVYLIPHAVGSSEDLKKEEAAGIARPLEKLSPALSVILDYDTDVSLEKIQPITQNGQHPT
Note: assay procedure not described here.

## C[N+]1(C)CCC(=C(c2ccccc2)c2ccccc2)CC1
[1]
  AC50: > 10 µM
[2]
  AC50: > 30 µM
[3]
  AC50: > 30 µM
[4]
  AC50: > 10 µM
[5]
  AC50: > 10 µM

## C[N+](C)(C)CCOP(=O)([O-])OC[C@H](O)CO
[1]
  AC50: > 30 µM
[2]
  AC50: > 30 µM
[3]
  AC50: > 30 µM
[5]
  AC50: > 30 µM
[6]
  AC50: > 30 µM

## CN(C)C/C=C/C(=O)Nc1cc2c(Nc3ccc(F)c(Cl)c3)ncnc2cc1O[C@H]1CCOC1 [AFATINIB]
[1]
  AC50: > 30 µM
[2]
  AC50: > 30 µM
[3]
  AC50: > 30 µM
[5]
  AC50: > 30 µM
[6]
  AC50: > 30 µM

## Cc1ccccc1-n1c(CF)nc2ccc(N)cc2c1=O [AFLOQUALONE]
[1]
  AC50: > 10 µM
[2]
  AC50: > 30 µM
[3]
  AC50: > 30 µM
[4]
  AC50: > 10 µM
[5]
  AC50: > 30 µM

## CC1=C(C(=O)OC(C)C)C(c2cccc([N+](=O)[O-])c2)C(C(=O)OC2CN(C(c3ccccc3)c3ccccc3)C2)=C(N)N1 (centres undefined) [AZELNIDIPINE]
[2]
  AC50: 2.2 µM
[3]
  AC50: 16 µM
[5]
  AC50: 27 µM
[6]
  AC50: > 3 µM

## CCOC(=O)c1ccc(N)cc1 [BENZOCAINE]
[1]
  AC50: > 10 µM
[2]
  AC50: > 10 µM
[3]
  AC50: > 10 µM
[4]
  AC50: > 10 µM
[5]
  AC50: > 10 µM

## CNCCc1ccc(OC(=O)C(C)C)c(OC(=O)C(C)C)c1 [IBOPAMINE]
[1]
  AC50: > 30 µM
[2]
  AC50: > 30 µM
[3]
  AC50: > 30 µM
[5]
  AC50: > 30 µM
[6]
  AC50: > 30 µM

## CCOC(=O)C1=C(C)NC(C)=C(C(=O)OCC)C1c1ccccc1/C=C/C(=O)OC(C)(C)C [LACIDIPINE]
[2]
  AC50: 15 µM
[3]
  AC50: > 30 µM
[5]
  AC50: > 30 µM
[6]
  AC50: > 30 µM

## COC(=O)C1=C(C)NC(C)=C(C(=O)OCCN2CCN(C(c3ccccc3)c3ccccc3)CC2)C1c1cccc([N+](=O)[O-])c1 (centres undefined) [MANIDIPINE 6300]
[1]
  AC50: > 30 µM
[2]
  AC50: 3.8 µM
[3]
  AC50: > 30 µM
[5]
  AC50: > 30 µM
[6]
  AC50: > 1 µM

## OC[C@H]1O[C@@H](n2cnc3c2NC=NC[C@H]3O)C[C@@H]1O [PENTOSTATIN]
[1]
  AC50: > 30 µM
[2]
  AC50: 3.6 µM
[3]
  AC50: > 30 µM
[5]
  AC50: > 30 µM
[6]
  AC50: > 30 µM

## Cc1cccc(C)c1NC(=O)CC12CCCN1CCC2 [PILSICAINIDE]
[2]
  AC50: > 30 µM
[3]
  AC50: > 30 µM
[5]
  AC50: > 30 µM
[6]
  AC50: > 30 µM

## CN[C@@H](C)[C@@H](O)c1ccccc1 [PSEUDOEPHEDRINE]
[1]
  AC50: > 10 µM
[2]
  AC50: > 30 µM
[3]
  AC50: > 10 µM
[5]
  AC50: > 10 µM
[6]
  AC50: > 30 µM

## CCCN1CC(NS(=O)(=O)N(CC)CC)CC2Cc3c(O)cccc3CC21 (centres undefined) [QUINAGOLIDE]
[2]
  AC50: > 30 µM
[3]
  AC50: > 30 µM
[5]
  AC50: > 30 µM
[6]
  AC50: > 30 µM

## CC(OCCN1CCCCCC1)(c1ccccc1)c1ccc(Cl)cc1 (centres undefined) [SETASTINE]
[7]
  AC50: 28.1 µM
[8]
  AC50: > 30 µM
[9]
  AC50: 6.96 µM

## C[C@]12CCC(=O)C[C@@H]1CC[C@@H]1[C@@H]2CC[C@]2(C)[C@@H](O)CC[C@@H]12 [STANOLONE]
[2]
  AC50: > 30 µM
[3]
  AC50: > 30 µM
[4]
  AC50: > 30 µM
[5]
  AC50: > 30 µM

## COc1cc(C)c2c(Oc3cccc(C(F)(F)F)c3)c(OC)cc(NC(C)CCCN)c2n1 (centres undefined) [TAFENOQUINE]
[7]
  AC50: > 3 µM
[8]
  AC50: 4.23 µM
[9]
  AC50: 16.4 µM

## O=S1(=O)CCN(CN2CCS(=O)(=O)NC2)CN1 [TAUROLIDINE]
[8]
  AC50: > 30 µM
[2]
  AC50: > 30 µM
[5]
  AC50: > 30 µM
[9]
  AC50: > 30 µM
[6]
  AC50: > 30 µM

## CCCSc1nc(N[C@@H]2C[C@H]2c2ccc(F)c(F)c2)c2nnn([C@@H]3C[C@H](OCCO)[C@@H](O)[C@H]3O)c2n1 [TICAGRELOR]
[7]
  AC50: > 30 µM
[8]
  AC50: 7.6 µM
[9]
  AC50: 14.9 µM

## c1ccc2c(SC3=NCCN3)c[nH]c2c1 [TINAZOLINE]
[7]
  AC50: 0.003 µM
[8]
  AC50: 24 µM
[9]
  AC50: > 30 µM

## Cc1ccc(C(=O)C(C)CN2CCCCC2)cc1 (centres undefined) [TOLPERISONE]
[7]
  AC50: > 30 µM
[8]
  AC50: > 30 µM
[9]
  AC50: > 30 µM

## CCOC(=O)c1c(CSc2ccccc2)n(C)c2cc(Br)c(O)c(CN(C)C)c12 [UMIFENOVIR]
[2]
  AC50: > 30 µM
[3]
  AC50: 3.7 µM
[5]
  AC50: > 30 µM
[6]
  AC50: > 30 µM
